# Results reported in patent US8192962B2, “Processes for detecting toxic substances” (Daikin Industries, Ltd., priority 2001, dated 2012).
# Test system: Mitochondria-located protein genes
# Assay: DNA chip mRNA expression in yeast, mitochondria-located protein genes (Table 2)
# Type: cell-based, Saccharomyces cerevisiae S288C
# Conditions: cells incubated two hours with the chemical substance
# Description: Yeast (Saccharomyces cerevisiae S288C (α SUC2mal mel gap2 CUP1)) were incubated at 25° C. on YPD medium (yeast extract 1%, polypepton 2%, glucose 2%). One of toxic chemical substances was added to the cells at logarithmic growth phase, and the cells were further incubated for two hours. Cells were cultured without any chemical substance in the same condition, and were used as control. Concentrations of the chemical substances were defined to inhibit the growth of the yeast but not lead to death.
# After completion of the incubation, the culture was centrifuged to collect the cells. To the cells, sodium acetate buffer (50 mM sodium acetate, 10 mM EDTA, 1% SDS) was added, and the mixture was shaken at 65° C. for five minutes, followed by returning to room temperature, and obtaining the supernatant, of which the procedures were repeated two times. To the supernatant, ½ amount of a solution of phenol/chloroform was added, and the mixture was centrifuged to give a supernatant, which was added with an equal amount of chloroform, and the mixture was centrifuged to give a supernatant. To the supernatant, an equal amount of isopropanol containing 0.3 M sodium acetate was added, and the mixture was allowed to stand at room temperature for 30 minutes, after which the mixture was centrifuged to give a sediment of the whole RNAs. Seventy % ethanol was added to the sediment, and the mixture was again centrifuged to give a sediment, which was then dried and dissolved in water. mRNA was isolated from the whole RNAs as followings. In view of the fact that a poly A chain is attached to the 3′ terminus of mRNA, a polynucleotide having a poly T structure which was immobilized on the surface of latex beads was used to trap the mRNA, and then the mRNA was washed and eluted with spine column (Oligotex-dT30<Super>mRNA Purification Kit, Takara). Reverse transcription of the mRNA was conducted with a reverse transcriptase (Super Script II Reverse Transcriptase; catalogue No. 18064-014, GibcoBRL) using fluorescence-labeled nucleotides to give cDNAs that were introduced with Cy3-dUTP or Cy5-dUTP during the reverse transcription.
# The labeled cDNAs were dissolved in TE buffer (10mM Tris-HCl/1 mM EDTA, pH8.0), and the solution was dropped on the DNA chip containing the whole genes of yeast (DNA Chip Research Inc. Japan) so that the cDNAs were hybridized on the DNA chip at 65° C. for over 12 hours. The fluoresces intensity of the DNA chip was read with a scanner, and the ratio relative to the fluorescence intensity resulting from the absence of chemical substance was estimated as the following, which is shown in Tables 1 to 9: […]
substance,measurement,setting,value
Na2As [(1)],The level of expressed mRNA in the presence of chemical substance/The level of expressed mRNA in the absence of chemical substance,yeast gene YAL039C,1.1
same,The level of expressed mRNA in the presence of chemical substance/The level of expressed mRNA in the absence of chemical substance,yeast gene YBL022C,0.4
same,The level of expressed mRNA in the presence of chemical substance/The level of expressed mRNA in the absence of chemical substance,yeast gene YBL030C,1.0
same,The level of expressed mRNA in the presence of chemical substance/The level of expressed mRNA in the absence of chemical substance,yeast gene YBL038W,1.0
same,The level of expressed mRNA in the presence of chemical substance/The level of expressed mRNA in the absence of chemical substance,yeast gene YBL099W,0.8
same,The level of expressed mRNA in the presence of chemical substance/The level of expressed mRNA in the absence of chemical substance,yeast gene YBR003W,0.9
same,The level of expressed mRNA in the presence of chemical substance/The level of expressed mRNA in the absence of chemical substance,yeast gene YBR044C,0.8
same,The level of expressed mRNA in the presence of chemical substance/The level of expressed mRNA in the absence of chemical substance,yeast gene YBR091C,1.1
same,The level of expressed mRNA in the presence of chemical substance/The level of expressed mRNA in the absence of chemical substance,yeast gene YBR122C,0.9
same,The level of expressed mRNA in the presence of chemical substance/The level of expressed mRNA in the absence of chemical substance,yeast gene YBR185C,1.2
same,The level of expressed mRNA in the presence of chemical substance/The level of expressed mRNA in the absence of chemical substance,yeast gene YBR221C,0.8
same,The level of expressed mRNA in the presence of chemical substance/The level of expressed mRNA in the absence of chemical substance,yeast gene YBR251W,1.0
same,The level of expressed mRNA in the presence of chemical substance/The level of expressed mRNA in the absence of chemical substance,yeast gene YBR282W,1.0
same,The level of expressed mRNA in the presence of chemical substance/The level of expressed mRNA in the absence of chemical substance,yeast gene YCL057W,0.6
same,The level of expressed mRNA in the presence of chemical substance/The level of expressed mRNA in the absence of chemical substance,yeast gene YCR046C,1.0
same,The level of expressed mRNA in the presence of chemical substance/The level of expressed mRNA in the absence of chemical substance,yeast gene YCR083W,1.1
same,The level of expressed mRNA in the presence of chemical substance/The level of expressed mRNA in the absence of chemical substance,yeast gene YDL067C,1.8
same,The level of expressed mRNA in the presence of chemical substance/The level of expressed mRNA in the absence of chemical substance,yeast gene YDL181W,1.3
same,The level of expressed mRNA in the presence of chemical substance/The level of expressed mRNA in the absence of chemical substance,yeast gene YDL198C,1.4
same,The level of expressed mRNA in the presence of chemical substance/The level of expressed mRNA in the absence of chemical substance,yeast gene YDR079W,1.3
same,The level of expressed mRNA in the presence of chemical substance/The level of expressed mRNA in the absence of chemical substance,yeast gene YDR178W,2.0
same,The level of expressed mRNA in the presence of chemical substance/The level of expressed mRNA in the absence of chemical substance,yeast gene YDR231C,1.1
same,The level of expressed mRNA in the presence of chemical substance/The level of expressed mRNA in the absence of chemical substance,yeast gene YDR258C,1.6
same,The level of expressed mRNA in the presence of chemical substance/The level of expressed mRNA in the absence of chemical substance,yeast gene YDR298C,1.3
same,The level of expressed mRNA in the presence of chemical substance/The level of expressed mRNA in the absence of chemical substance,yeast gene YDR347W,1.1
same,The level of expressed mRNA in the presence of chemical substance/The level of expressed mRNA in the absence of chemical substance,yeast gene YDR377W,1.3
same,The level of expressed mRNA in the presence of chemical substance/The level of expressed mRNA in the absence of chemical substance,yeast gene YDR529C,1.8
same,The level of expressed mRNA in the presence of chemical substance/The level of expressed mRNA in the absence of chemical substance,yeast gene YEL024W,1.3
same,The level of expressed mRNA in the presence of chemical substance/The level of expressed mRNA in the absence of chemical substance,yeast gene YEL039C,1.1
same,The level of expressed mRNA in the presence of chemical substance/The level of expressed mRNA in the absence of chemical substance,yeast gene YER178W,0.8
same,The level of expressed mRNA in the presence of chemical substance/The level of expressed mRNA in the absence of chemical substance,yeast gene YFL016C,0.8
same,The level of expressed mRNA in the presence of chemical substance/The level of expressed mRNA in the absence of chemical substance,yeast gene YGL018C,1.1
same,The level of expressed mRNA in the presence of chemical substance/The level of expressed mRNA in the absence of chemical substance,yeast gene YGL187C,1.5
same,The level of expressed mRNA in the presence of chemical substance/The level of expressed mRNA in the absence of chemical substance,yeast gene YGL191W,1.7
same,The level of expressed mRNA in the presence of chemical substance/The level of expressed mRNA in the absence of chemical substance,yeast gene YGR008C,2.1
same,The level of expressed mRNA in the presence of chemical substance/The level of expressed mRNA in the absence of chemical substance,yeast gene YGR028W,1.4
same,The level of expressed mRNA in the presence of chemical substance/The level of expressed mRNA in the absence of chemical substance,yeast gene YGR062C,0.9
same,The level of expressed mRNA in the presence of chemical substance/The level of expressed mRNA in the absence of chemical substance,yeast gene YGR076C,1.3
same,The level of expressed mRNA in the presence of chemical substance/The level of expressed mRNA in the absence of chemical substance,yeast gene YGR082W,1.0
same,The level of expressed mRNA in the presence of chemical substance/The level of expressed mRNA in the absence of chemical substance,yeast gene YGR174C,1.1
same,The level of expressed mRNA in the presence of chemical substance/The level of expressed mRNA in the absence of chemical substance,yeast gene YGR244C,1.0
same,The level of expressed mRNA in the presence of chemical substance/The level of expressed mRNA in the absence of chemical substance,yeast gene YHR008C,1.3
same,The level of expressed mRNA in the presence of chemical substance/The level of expressed mRNA in the absence of chemical substance,yeast gene YIL155C,1.0
same,The level of expressed mRNA in the presence of chemical substance/The level of expressed mRNA in the absence of chemical substance,yeast gene YJL096W,1.0
same,The level of expressed mRNA in the presence of chemical substance/The level of expressed mRNA in the absence of chemical substance,yeast gene YJL102W,1.1
same,The level of expressed mRNA in the presence of chemical substance/The level of expressed mRNA in the absence of chemical substance,yeast gene YJL133W,1.0
same,The level of expressed mRNA in the presence of chemical substance/The level of expressed mRNA in the absence of chemical substance,yeast gene YJL166W,2.1
same,The level of expressed mRNA in the presence of chemical substance/The level of expressed mRNA in the absence of chemical substance,yeast gene YJL180C,0.9
same,The level of expressed mRNA in the presence of chemical substance/The level of expressed mRNA in the absence of chemical substance,yeast gene YJR045C,0.5
same,The level of expressed mRNA in the presence of chemical substance/The level of expressed mRNA in the absence of chemical substance,yeast gene YJR077C,1.1
